Columns and labels:
[1] = test system: MMP-9 mRNA; experiment: TPA-induced MMP-9 mRNA expression in mouse skin, RT-PCR; format: in vivo; details: for TPA-induced MMP-9 mRNA expression (in words): topical after TPA, 6 h, indicated concentrations
Protocol: Shaven abdominal skins of female C57BL/6JNarl mice were untreated or topically treated with vehicle (acetone, […]) or TPA (10 nmol in […]) for 6 h or treated first with TPA for 10 min and then with the indicated concentrations of BrD1 for 6 h. Total RNA was extracted from treated abdominal skins of female mice using TRIzol reagent (Invitrogen Corp., Carlsbad, Calif.). RT-PCR reactions using AccessQuick RT-PCR system (Promega, Madison, Wis.) were carried out as described previously. The primers contained the following sequences: mouse MMP-9 sense primer 5′-[…]-3′ (SEQ ID NO. 1), and anti-sense primer 5′-[…]-3′ (SEQ ID NO. 2); mouse GAPDH sense primer 5′-[…]-3′ (SEQ ID NO. 3), and anti-sense primer 5′-[…]-3′ (SEQ ID NO. 4). Gel images were scanned and densitometry analysis of the captured image was performed using Gene Tools software (Syngene, Cambridge, UK).
Matrix metalloproteinases (MMPs) play a crucial role in many physiological and pathological processes through remodeling extracellular matrix tissues (Stamenkovic I. J Pathol 2003, 200:448-464). Matrix metalloproteinase-9 (MMP-9), a gelatinase which has a key role in inflammatory response, is activated in skin during tissue injury (Shakarjian M P, Bhatt P, Gordon M K, Chang Y C, Casbohm S L, Rudge T L, Kiser R C, Sabourin C L, Casillas R P, Ohman-Strickland P, Riley D J, Gerecke D R. J Appl Toxicol 2006, 26:239-246). In order to evaluate the anti-inflammatory effect of BrD1 on MMP-9 activation in TPA-inflamed skin, BrD1 was topically applied after TPA treatment for 24 h. […] Inhibiton of TPA-inducedMMP-9 expression by BrD1 treatment could also be readily observed at the mRNA level.

[2] = test system: TNF-α; experiment: LPS-induced TNF-α expression in mouse bone marrow-derived dendritic cells, ELISA; format: cell-based; details: LPS 100 ng/ml plus BrD1 at different concentrations, 24 h
From the text: For mouse bone marrow-derived DCs (BMDCs), five to six-week-old female C57BL/6JNarl mice were purchased from the National Laboratory Animal Center, Taiwan and kept under SPF conditions. BMDCs were generated from bone marrow cells of C57BL/6 mice as described previously (Yin S Y, Wang W H, Wang B X, Aravindaram K, Hwang P I, Wu H M, Yang N S. BMC genomics 2010, 11:612). In brief, bone marrow was isolated from femurs and tibiae which were then flushed with RPMI-1640 medium using a syringe with a 0.45-mm needle on Day 0. Red blood cells in suspension were lysed for […] with ACK lysing buffer (150 mM NH4Cl, 1.0 mM KHCO3, 0.1 mM EDTA). Bone marrow cells were suspended at a density of 1×10^7 cells/30 ml in RPMI-1640 containing 10% FBS, 2 mM L-glutamine, 1% of nonessential amino acids, 100 U/mL penicillin and 100 μg/mL streptomycin supplemented with 20 ng/mL of mGM-CSF in 15-cm dishes at 37° C. with 5% CO2. On day 2, two-thirds of the medium was removed and 30 mL fresh medium with mGM-CSF was added to the cells. On day 5, culture plates were gently swirled and the floating and loosely adherent cells were discarded. Aliquots of 75% culture media were replenished with 20 ng/mL mGM-CSF and 20 ng/mL mIL-4. […]

CCCC(=O)O[C@H]1C/C(C)=C\[C@@H]2OC(=O)[C@]3(C)O[C@]23[C@@H](OC(C)=O)[C@H]2[C@@H](C)[C@@H](O)C[C@H](OC(C)=O)[C@]2(C)[C@H]1OC(C)=O [BrD1, excavatolide B]
inhibition of TPA-induced MMP-9 mRNA expression ([1]; 1 mg/site/mouse topical, 6 h after TPA): ≤ 82% | TPA-induced MMP-9 mRNA expression (in words) [1]: significantly inhibited MMP-9 mRNA expression in a dose-dependent manner | TPA-induced MMP-9 mRNA expression (in words) ([1]; listed as excavatolide B): significantly inhibits MMP-9 mRNA expression in a dose-dependent manner | TNF-α expression in LPS-stimulated dendritic cells [2]: inhibited TNF-a expression to a much lesser extent | TNF-α expression in LPS-stimulated dendritic cells ([2]; listed as Excavatolide B): inhibits TNF-α expression to a much lesser extent

— US8530513B1, “Pharmaceutical uses of diterpene excavatolide B from a coral or an analogue thereof” (National Sun Yat-Sen University, priority 2012, dated 2013)
